Laboratory results as given in patent US9890153B2, “Substituted 1H-pyrrolo [2, 3-b] pyridine and 1H-pyrazolo [3, 4-b] pyridine derivatives as salt inducible kinase 2 (SIK2) inhibitors” (Arrien Pharmaceuticals LLC, priority 2012, dated 2018).
Read-outs that look alike come from different tables or passages of the source.

Target: SIK2 (QIK) (SEQ ID NO: 11) (Homo sapiens, UniProt Q9H0K1)
Experiment: SIK2 kinase assay (radiometric, 10 μM ATP)
Type: biochemical
Protocol: Procedure: Enzyme was incubated with substrate peptide in reaction buffer in the presence and absence of test compounds or Staurosporine. All additions were done on ice, followed by the addition of ATP mix. Wells were uniformly mixed using an Eppendorff plate shaker and incubated at 30° C. for 20 min, and stopped by the addition of 5 μL of 3% phosphoric acid. Volume was increased to 100 μL by adding 0.8% phosphoric acid which was then transferred to PC filter mats (Millipore), pre-equilibrated with 70% ethanol and water. Plates were washed thrice with 100 μL 0.8% phosphoric acid and dried for an hour at 60° C.

[1] = read-out: SIK2 (QIK) (SEQ ID NO: 11) kinase inhibition result
[2] = compounds purchased from vendor library, read-out: SIK2 IC50

SIK2 (QIK) (SEQ ID NO: 11), sequence (Q9H0K1 whole entry): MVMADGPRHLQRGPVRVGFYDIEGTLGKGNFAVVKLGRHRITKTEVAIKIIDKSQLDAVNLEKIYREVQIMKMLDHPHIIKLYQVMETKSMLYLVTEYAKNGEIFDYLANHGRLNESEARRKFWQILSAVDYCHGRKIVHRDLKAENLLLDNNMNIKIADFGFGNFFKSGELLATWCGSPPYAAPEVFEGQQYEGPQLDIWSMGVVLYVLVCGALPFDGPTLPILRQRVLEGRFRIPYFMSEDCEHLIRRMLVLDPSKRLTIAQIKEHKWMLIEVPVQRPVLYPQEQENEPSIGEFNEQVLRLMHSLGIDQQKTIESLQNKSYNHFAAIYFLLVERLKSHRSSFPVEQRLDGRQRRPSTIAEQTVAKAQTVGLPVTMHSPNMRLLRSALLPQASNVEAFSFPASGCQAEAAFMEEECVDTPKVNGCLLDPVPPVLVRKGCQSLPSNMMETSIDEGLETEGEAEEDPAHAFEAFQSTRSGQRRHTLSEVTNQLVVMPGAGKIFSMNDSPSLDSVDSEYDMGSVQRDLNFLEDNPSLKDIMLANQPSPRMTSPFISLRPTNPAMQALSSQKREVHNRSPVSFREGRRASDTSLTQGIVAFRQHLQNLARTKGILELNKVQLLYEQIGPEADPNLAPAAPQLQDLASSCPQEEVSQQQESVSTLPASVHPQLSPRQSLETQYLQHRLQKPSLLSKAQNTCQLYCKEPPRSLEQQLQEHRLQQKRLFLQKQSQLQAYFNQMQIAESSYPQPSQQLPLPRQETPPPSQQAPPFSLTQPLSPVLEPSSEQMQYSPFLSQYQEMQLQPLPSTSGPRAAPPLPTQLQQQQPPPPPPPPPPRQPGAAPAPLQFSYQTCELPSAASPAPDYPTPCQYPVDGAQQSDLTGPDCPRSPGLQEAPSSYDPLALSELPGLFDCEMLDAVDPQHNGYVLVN

Row | SMILES | IC50 [1] [nM] | IC50 [2] [nM]
1 | COc1ccc(-c2n[nH]c3nccc(-c4ccsc4)c23)cc1 [Example 7, 3-(4-methoxyphenyl)-4-(thiophen-3-yl)-1H-pyrazolo[3,4-b]pyridine] | > 100 | 
2 | c1cc(-c2ccsc2)c2cc[nH]c2n1 [Example 20, 4-(thiophen-3-yl)-1H-pyrrolo[2,3-b]pyridine] | > 1000 | 
3 | Fc1ccccc1-c1c[nH]c2nccc(-c3ccsc3)c12 [Example 22, 3-(2-fluorophenyl)-4-(thiophen-3-yl)-1H-pyrrolo[2,3-b]pyridine] | > 1000 | 
4 | Fc1cccc(-c2c[nH]c3nccc(-c4ccsc4)c23)c1Cl [Example 23, 3-(2-chloro-3-fluorophenyl)-4-(thiophen-3-yl)-1H-pyrrolo[2,3-b]pyridine] | > 100 | 
5 | COc1cc(Cl)ccc1-c1c[nH]c2nccc(-c3ccsc3)c12 [Example 24, 3-(4-chloro-2-methoxyphenyl)-4-(thiophen-3-yl)-1H-pyrrolo[2,3-b]pyridine] | > 100 | 
6 | COc1ccc(-c2c[nH]c3nccc(-c4ccsc4)c23)cc1 [Example 25, 3-(4-methoxyphenyl)-4-(thiophen-3-yl)-1H-pyrrolo[2,3-b]pyridine] | > 1000 | 
7 | CCOc1ccccc1-c1c[nH]c2nccc(-c3ccsc3)c12 [Example 26, 3-(2-ethoxyphenyl)-4-(thiophen-3-yl)-1H-pyrrolo[2,3-b]pyridine] | > 100 | 
8 | COc1cc(F)ccc1-c1c[nH]c2nccc(-c3ccsc3)c12 [Example 28, 3-(4-fluoro-2-methoxyphenyl)-4-(thiophen-3-yl)-1H-pyrrolo[2,3-b]pyridine] | > 100 | 
9 | Clc1ccnc2[nH]cc(-c3ccsc3)c12 [Example 29, 4-chloro-3-(thiophen-3-yl)-1H-pyrrolo[2,3-b]pyridine] | > 100 | 
10 | COc1ccccc1-c1ccnc2[nH]cc(-c3ccsc3)c12 [Example 30, 4-(2-methoxyphenyl)-3-(thiophen-3-yl)-1H-pyrrolo[2,3-b]pyridine] | > 1000 | 
11 | Clc1cccc(-c2c[nH]c3nccc(-c4ccsc4)c23)c1 [Example 47, 3-(3-chlorophenyl)-4-(thiophen-3-yl)-1H-pyrrolo[2,3-b]pyridine] | > 100 | 
12 | CN(C)S(=O)(=O)c1ccccc1-c1c[nH]c2nccc(-c3ccsc3)c12 [Example 94, N,N-dimethyl-2-(4-(thiophen-3-yl)-1H-pyrrolo[2,3-b]pyridin-3-yl)benzenesulfonamide] | > 1000 | 
13 | FC(F)(F)Oc1ccccc1-c1c[nH]c2nccc(-c3ccsc3)c12 [Example 99, 4-(thiophen-3-yl)-3-(2-(trifluoromethoxy)phenyl)-1H-pyrrolo[2,3-b]pyridine] | > 1000 | 
14 | Fc1cc(OC(F)(F)F)ccc1-c1c[nH]c2nccc(-c3ccsc3)c12 [Example 100, 3-(2-fluoro-4-(trifluoromethoxy)phenyl)-4-(thiophen-3-yl)-1H-pyrrolo[2,3-b]pyridine] | > 1000 | 
15 | COc1ccc(-c2c[nH]c3nccc(-c4ccsc4)c23)c(OC)n1 [Example 101, 3-(2,6-dimethoxypyridin-3-yl)-4-(thiophen-3-yl)-1H-pyrrolo[2,3-b]pyridine] | > 100 | 
16 | COc1ccccc1-c1c[nH]c2ncc(-c3ccsc3)cc12 [Example 113, 3-(2-methoxyphenyl)-5-(thiophen-3-yl)-1H-pyrrolo[2,3-b]pyridine] | > 100 | 
17 | COc1c(F)cc(F)cc1-c1c[nH]c2ncc(-c3ccsc3)cc12 [Example 126, 3-(3,5-difluoro-2-methoxyphenyl)-5-(thiophen-3-yl)-1H-pyrrolo[2,3-b]pyridine] | > 1000 | 

Row | SMILES | IC50 [1] [nM] | IC50 [2] [nM]
18 | N#Cc1ccc(-c2cnc3[nH]cc(-c4cccc(F)c4Cl)c3c2)s1 [Example 132, 5-(3-(2-chloro-3-fluorophenyl)-1H-pyrrolo[2,3-b]pyridin-5-yl)thiophene-2-carbonitrile] | > 100 | 
19 | Cc1ncc(-c2cnc3[nH]cc(-c4cccc(F)c4Cl)c3c2)s1 [Example 137, 5-(3-(2-chloro-3-fluorophenyl)-1H-pyrrolo[2,3-b]pyridin-5-yl)-2-methylthiazole] | > 100 | 
20 | Clc1ccccc1-c1c[nH]c2ncc(-c3ccsc3)cc12 [Example 139, 3-(2-chlorophenyl)-5-(thiophen-3-yl)-1H-pyrrolo[2,3-b]pyridine] | > 1000 | 
21 | Fc1ccc(-c2c[nH]c3ncc(-c4ccsc4)cc23)cc1Cl [Example 140, 3-(3-chloro-4-fluorophenyl)-5-(thiophen-3-yl)-1H-pyrrolo[2,3-b]pyridine] | > 1000 | 
22 | COc1ccc(-c2ccnc3[nH]nc(-c4cccnc4)c23)cc1OC [compound 1, 4-(3,4-dimethoxyphenyl)-3-(pyridin-3-yl)-1H-pyrazolo[3,4-b]pyridine] |  | > 100
23 | FC(F)(F)c1cccc(-c2ccnc3[nH]nc(-c4ccc5c(c4)OCO5)c23)c1 [compound 2, 3-(benzo[d][1,3]dioxol-5-yl)-4-(3-(trifluoromethyl)phenyl)-1H-pyrazolo[3,4-b]pyridine] |  | > 1000
24 | COc1cc(-c2ccnc3[nH]nc(-c4cccc(NS(C)(=O)=O)c4)c23)cc(OC)c1OC [compound 3, N-(3-(4-(3,4,5-trimethoxyphenyl)-1H-pyrazolo[3,4-b]pyridin-3-yl)phenyl)methanesulfonamide] |  | > 1000
25 | COc1cc(-c2n[nH]c3nccc(-c4cccc(C(=O)NCCN(C)C)c4)c23)cc(OC)c1OC [compound 4, N-(2-(dimethylamino)ethyl)-3-(3-(3,4,5-trimethoxyphenyl)-1H-pyrazolo[3,4-b]pyridin-4-yl)benzamide] |  | > 1000
26 | COc1ccccc1-c1n[nH]c2nccc(-c3ccsc3)c12 [compound 5, 3-(2-methoxyphenyl)-4-(thiophen-3-yl)-1H-pyrazolo[3,4-b]pyridine] |  | < 100
27 | COc1cc(-c2n[nH]c3nccc(-c4ccc(C(C)C)cc4)c23)cc(OC)c1OC [compound 6, 4-(4-isopropylphenyl)-3-(3,4,5-trimethoxyphenyl)-1H-pyrazolo[3,4-b]pyridine] |  | > 100
28 | OCCNC(O)c1cccc(-c2n[nH]c3nccc(-c4cccc(C(F)(F)F)c4)c23)c1 (stereo not drawn) [compound 7, 2-((hydroxy(3-(4-(3-(trifluoromethyl)phenyl)-1H-pyrazolo[3,4-b]pyridin-3-yl)phenyl)methyl)amino)ethanol] |  | > 1000
29 | COc1cccc(-c2ccnc3[nH]nc(-c4cccc(C(F)(F)F)c4)c23)c1 [compound 8, 4-(3-methoxyphenyl)-3-(3-(trifluoromethyl)phenyl)-1H-pyrazolo[3,4-b]pyridine] |  | > 1000
30 | COc1cc(-c2n[nH]c3nccc(-c4cccc(N(C)C)c4)c23)cc(OC)c1OC [compound 9, N,N-dimethyl-3-(3-(3,4,5-trimethoxyphenyl)-1H-pyrazolo[3,4-b]pyridin-4-yl)aniline] |  | > 1000
31 | COc1ccccc1-c1n[nH]c2nccc(-c3ccoc3)c12 [compound 10, 4-(furan-3-yl)-3-(2-methoxyphenyl)-1H-pyrazolo[3,4-b]pyridine] |  | < 100
32 | COc1cc(-c2n[nH]c3nccc(-c4cccc(C(N)=O)c4)c23)cc(OC)c1OC [compound 11, 3-(3-(3,4,5-trimethoxyphenyl)-1H-pyrazolo[3,4-b]pyridin-4-yl)benzamide] |  | > 1000
33 | CNC(=O)c1cccc(-c2ccnc3[nH]nc(-c4cccc(C(F)(F)F)c4)c23)c1 [compound 12, N-methyl-3-(3-(3-(trifluoromethyl)phenyl)-1H-pyrazolo[3,4-b]pyridin-4-yl)benzamide] |  | > 1000
